In test [1] the target is T1, aldose reductase (Bos taurus, UniProt P16116).
T1 construct: preparation of the enzyme from bovine lens; from tissue; host or cells: bovine lens
Description: in vitro inhibition of aldose reductase (enzyme from bovine lens, modified Hayman and Kinoshita procedure). It counts as biochemical. The following applies: read-out: % inhibition in vitro. An excerpt:
In the present case the procedure of Hayman and Kinoshita was modified in that the final chromatography step was omitted in the preparation of the enzyme from bovine lens.

The target in test [2] is T2, aldose reductase (Rattus norvegicus, UniProt P07943).
T2 construct: diminish the accumulation of dulcitol in the lenses, sciatic nerves and diaphragm of rats fed galactose; from tissue; host or cells: lens, sciatic nerve and diaphragm of living male Sprague-Dawley rats
Description: lowering of dulcitol accumulation in vivo in lens, sciatic nerve and diaphragm of galactosemic rats. On the set-up: species or system rat (Sprague-Dawley). The following applies: for ED50: po, 96 h. The source says:
Such experiments are exemplified hereinbelow after the listing of the following general comments pertaining to these experiments:
(a) Four or more groups of six male rats, 50-70 g, Sprague-Dawley strain, were used. The first group, the control group, was fed a mixture of laboratory chow (rodent Laboratory Chow, Purina) and glucose at 20% (w/w %) concentration. The untreated galactosemic group was fed a similar diet in which galactose is substituted for glucose. The third group was fed a diet prepared by mixing a given amount of the test compound with the galactose containing diet. The concentration of galactose in the diet of the treated groups was the same as that for the untreated galactosemic group.
(b) After four days, the animals were killed by decapitation. The eyeballs were removed and punctured with a razor blade; the freed lenses were rolled gently on filter paper and weighed. The sciatic nerves were dissected as completely as possible and weighed. Both tissues when frozen can be kept up to two weeks before being analyzed for dulcitol.
Only two minor reagent changes were made: (a) The rinsing mixture was an aqueous 5% (w/v) trichloroacetic acid solution and (b) the stock solution was prepared by dissolving 25 mg of dulcitol in 100 ml of an aqueous trichloroacetic acid solution. [N.B.: For each experiment the average value found in the tissue from rats fed the glucose diet was subtracted from the individual values found in the corresponding tissue in galactose-fed rats to obtain the amount of polyol accumulated.]
The figures under L, N and D represent the percentage decrease of dulcitol accumulation in the tissues of the lens, sciatic nerve and diaphragm, respectively, for treated rats as compared to untreated rats.

[3] abbreviates: diaphragm, 24 mg/kg/day in diet.
Setting [4] is: rat, diaphragm, read-out: ED50, lowering dulcitol accumulation in vivo, D.
The mark [5] stands for this setting: rat, sciatic nerve, read-out: ED50, lowering dulcitol accumulation in vivo, N.
Where [6] appears, read: diaphragm, 23 mg/kg/day in diet.

Read-outs that look alike come from different tables or passages of the source.

What is called inhibition is the relative decrease from the control value, in per cent. A word on the ED50: it is the dose at which the effect has come halfway, by size or by number of responders.

Turning to `O=C1CN(S(=O)(=O)c2cccc3c(I)cccc23)C(=O)N1` [Example 18, 1-[(5-iodo-1-naphthalenyl)sulfonyl]-2,4-imidazolidinedione], the inhibition at 0.1 µM on aldose reductase [1] (10^-7) is 59%. Also, the “% lowering dulcitol accumulation in vivo, D” value at aldose reductase [2] (setting [3]) stood at 74.0%. Besides, the “% lowering dulcitol accumulation in vivo, L” value at aldose reductase [2] (lens, 24 mg/kg/day in diet) stood at 33%.

Take `O=C1CN(S(=O)(=O)c2cccc3c(Br)cccc23)C(=S)N1` [Example 1, 1-[(5-Bromo-1-naphthalenyl)sulfonyl]-2-thioxo-4-imidazolidinone]: the inhibition at 10 µM on aldose reductase [1] (10^-5) came to 67%. The inhibition at 1 µM on aldose reductase [1] (10^-6) amounted to 17%. In addition, the “% lowering dulcitol accumulation in vivo, D” value at aldose reductase [2] (setting [3]) is listed as 61%; on aldose reductase [2] (diaphragm, 48 mg/kg/day in diet, p < 0.01), 64%; at aldose reductase [2] (diaphragm, 109 mg/kg/day in diet), 86%. For the same compound, the “% lowering dulcitol accumulation in vivo, L” value is reported as 24% on aldose reductase [2] (lens, 24 mg/kg/day in diet); 40% at aldose reductase [2] (lens, 48 mg/kg/day in diet, p < 0.01); 49% on aldose reductase [2] (lens, 109 mg/kg/day in diet). The ED50 at aldose reductase [2] (setting [4]) stood at 18 mg/kg; at aldose reductase [2] (rat, lens, read-out: ED50, lowering dulcitol accumulation in vivo, L) it was 99 mg/kg; at aldose reductase [2] (setting [5]), 22 mg/kg.

In the case of `O=C1CN(S(=O)(=O)c2ccc3c(Br)cccc3c2)C(=S)N1` [Example 19, 1-[(5-Bromo-2-naphthalenyl)sulfonyl]-2-thioxo-4-imidazolidinone], the inhibition at 10 µM at aldose reductase [1] (10^-5) was 13%. The inhibition at 1 µM at aldose reductase [1] (10^-6) worked out at 9%.

As to `O=C1CN(S(=O)(=O)c2cccc3ccccc23)C(=O)N1` [Example 10, 1-[(1-Naphthalenyl)sulfonyl]-2,4-imidazolidinedione], at aldose reductase [1] (10^-5), the inhibition at 10 µM was found to be 89%. Besides, on aldose reductase [1] (10^-6), the inhibition at 1 µM is 59%. For the same compound, the inhibition at 0.1 µM at aldose reductase [1] (10^-7) stood at 14%. In addition, at aldose reductase [2] (setting [6]), the “% lowering dulcitol accumulation in vivo, D” value was 31%. Also, the “% lowering dulcitol accumulation in vivo, L” value at aldose reductase [2] (lens, 23 mg/kg/day in diet) is 10%.

For `O=C1CN(S(=O)(=O)c2ccc(Br)c3ccccc23)C(=O)N1` [Example 4, 1-[(4-bromo-1-naphthalenyl)sulfonyl]-2,4-imidazolidinedione], the inhibition at 10 µM at aldose reductase [1] (10^-5) turned out to be 92%. For the same compound, the inhibition at 1 µM at aldose reductase [1] (10^-6) was determined as 81%. Moreover, the inhibition at 0.1 µM at aldose reductase [1] (10^-7) turned out to be 31%. Moreover, at aldose reductase [2] (setting [3]), the “% lowering dulcitol accumulation in vivo, D” value came out at 27%.

Consider `O=C1CN(S(=O)(=O)c2cccc3ccc(Br)cc23)C(=O)N1` [Example 14, 1-[(7-bromo-1-naphthalenyl)sulfonyl]-2,4-imidazolidinedione], for which the inhibition at 0.1 µM on aldose reductase [1] (10^-7) is 36%. Further, at aldose reductase [1], the inhibition at 1 µM is 79% and the inhibition at 10 µM turned out to be 93%. In addition, the “% lowering dulcitol accumulation in vivo, D” value on aldose reductase [2] (setting [6]) is 50%. For the same compound, at aldose reductase [2] (lens, 23 mg/kg/day in diet), the “% lowering dulcitol accumulation in vivo, L” value worked out at 0%.

As for `O=C1CN(S(=O)(=O)c2cccc3cc(Br)ccc23)C(=O)N1` [Example 12, 1-[(6-bromo-1-naphthalenyl)sulfonyl]-2,4-imidazolidinedione], the inhibition at 10 µM on aldose reductase [1] (10^-5) was 89%. The inhibition at 1 µM on aldose reductase [1] (10^-6) stood at 70%. Also, the inhibition at 0.1 µM on aldose reductase [1] (10^-7) stood at 23%. Moreover, the “% lowering dulcitol accumulation in vivo, D” value at aldose reductase [2] (setting [3]) is reported as 0%. Further, the “% lowering dulcitol accumulation in vivo, L” value at aldose reductase [2] (lens, 24 mg/kg/day in diet) is listed as 0%.

In the case of `O=C1CN(S(=O)(=O)c2cccc3c(I)cccc23)C(=S)N1` [Example 17, 1-[(5-iodo-1-naphthalenyl)sulfonyl]-2-thioxo-4-imidazolidinone], on aldose reductase [1] (10^-5), the inhibition at 10 µM turned out to be 58%. Besides, the inhibition at 1 µM at aldose reductase [1] (10^-6) amounted to 24%. In addition, the “% lowering dulcitol accumulation in vivo, D” value on aldose reductase [2] (diaphragm, 26 mg/kg/day in diet) was 34.0%. For the same compound, at aldose reductase [2] (lens, 26 mg/kg/day in diet), the “% lowering dulcitol accumulation in vivo, L” value is 0.0%.

On to `O=C1CN(S(=O)(=O)c2cccc3c(Cl)cccc23)C(=S)N1` [Example 15, 1-[(5-chloro-1-naphthalenyl)sulfonyl]-2-thioxo-4-imidazolidinone], for which the inhibition at 10 µM on aldose reductase [1] (10^-5) was determined as 43%. The inhibition at 1 µM on aldose reductase [1] (10^-6) was 14%.

Take `O=C1CN(S(=O)(=O)c2cccc3c(Br)cccc23)C(=O)N1` [Example 2, 1-[(5-Bromo-1-naphthalenyl)sulfonyl]-2,4-imidazolidinedione]: the inhibition at 10 µM at aldose reductase [1] (10^-5) was 93%. Also, the inhibition at 1 µM on aldose reductase [1] (10^-6) came out at 89%. In addition, the inhibition at 0.1 µM on aldose reductase [1] (10^-7) was 45%. Moreover, the “results compared with tolrestat (in words)” value on aldose reductase [2] (4.8 and 10.2 mg/kg/day versus tolrestat 4 and 11 mg/kg/day) is listed as “comparable results”. The “% lowering dulcitol accumulation in vivo, D” value at aldose reductase [2] (diaphragm, 4.8 mg/kg/day in diet) turned out to be 58%; at aldose reductase [2] (diaphragm, 10.2 mg/kg/day in diet), 72%; on aldose reductase [2] (diaphragm, 20.7 mg/kg/day in diet), 75%; at aldose reductase [2] (setting [6]) it was 81%; at aldose reductase [2] (diaphragm, 101 mg/kg/day in diet) it was 87%. Further, the “% lowering dulcitol accumulation in vivo, L” value amounted to 18% at aldose reductase [2] (lens, 10.2 mg/kg/day in diet); 36% on aldose reductase [2] (lens, 20.7 mg/kg/day in diet); 44% at aldose reductase [2] (lens, 23 mg/kg/day in diet); 79% on aldose reductase [2] (lens, 101 mg/kg/day in diet). Further, the ED50 at aldose reductase [2] (setting [4]) amounted to 2 mg/kg; at aldose reductase [2] (setting [5]), 8.1 mg/kg.

Regarding `CN(C)c1cccc2c(S(=O)(=O)N3CC(=O)NC3=O)cccc12` [Example 8, 1-[[5-(Dimethylamino)-1-naphthalenyl]sulfonyl]-2,4-imidazolidinedione], on aldose reductase [1] (10^-6), the inhibition at 1 µM amounted to 83%. For the same compound, at aldose reductase [1], the inhibition at 0.1 µM came out at 38% and the inhibition at 10 µM stood at 96%.

For `O=C1CN(S(=O)(=O)c2cccc3cc(Br)ccc23)C(=S)N1` [Example 11, 1-[(6-bromo-1-naphthalenyl)sulfonyl]-2-thioxo-4-imidazolidinone], the inhibition at 10 µM at aldose reductase [1] (10^-5) was determined as 10%. The inhibition at 1 µM on aldose reductase [1] (10^-6) amounted to 9%.

With `O=C1CN(S(=O)(=O)c2cccc3ccc(Br)cc23)C(=S)N1` [Example 13, 1-[(7-bromo-1-naphthalenyl)sulfonyl]-2-thioxo-4-imidazolidinone], the inhibition at 1 µM at aldose reductase [1] (10^-6) amounted to 16%. In addition, the inhibition at 10 µM at aldose reductase [1] was found to be 46%.

For `COc1ccc2c(C(=S)N(C)CC(=O)O)cccc2c1C(F)(F)F` [tolrestat, N-[[6-methoxy-5-(trifluoromethyl)-1-naphthalenyl]thioxomethyl]-N-methylglycine, reference compound], the “% lowering dulcitol accumulation in vivo, D” value at aldose reductase [2] (rat, in vivo, 11 mg/kg/day) was determined as 89.

Turning to `CN(C)c1cccc2c(S(=O)(=O)N3CC(=O)NC3=S)cccc12` [Example 7, 1-[[5-(dimethylamino)-1-naphthalenyl]sulfonyl]-2-thioxo-4-imidazolidinone], on aldose reductase [1] (10^-5), the inhibition at 10 µM was determined as 58%. On aldose reductase [1] (10^-6), the inhibition at 1 µM amounted to 12%.

With `O=C1CN(S(=O)(=O)c2ccc(Br)c3ccccc23)C(=S)N1` [Example 3, 1-[(4-bromo-1-naphthalenyl)sulfonyl]-2-thioxo-4-imidazolidinone], the inhibition at 10 µM on aldose reductase [1] (10^-5) was 53%. Moreover, the inhibition at 1 µM on aldose reductase [1] (10^-6) amounted to 15%.

With `COc1ccc2c(S(=O)(=O)N3CC(=O)NC3=S)cccc2c1C(F)(F)F` [Example 5, 1-[[6-methoxy-5-(trifluoromethyl)-1-naphthalenyl]sulfonyl]-2-thioxo-4-imidazolidinone], the inhibition at 1 µM on aldose reductase [1] (10^-6) was 15%. Also, on aldose reductase [1], the inhibition at 10 µM is 40%.

In the case of `O=C1CN(S(=O)(=O)c2cccc3c(Cl)cccc23)C(=O)N1` [Example 16, 1-[(5-chloro-1-naphthalenyl)sulfonyl]-2,4-imidazolidinedione], the inhibition at 10 µM on aldose reductase [1] (10^-5) was 85%. In addition, the inhibition at 0.1 µM on aldose reductase [1] (10^-7) came to 36%. At aldose reductase [1], the inhibition at 1 µM stood at 79%. Also, the “% lowering dulcitol accumulation in vivo, D” value at aldose reductase [2] (diaphragm, 25 mg/kg/day in diet) amounted to 82%. In addition, on aldose reductase [2] (lens, 25 mg/kg/day in diet), the “% lowering dulcitol accumulation in vivo, L” value worked out at 44%.

Consider `COc1ccc2c(S(=O)(=O)N3CC(=O)NC3=O)cccc2c1C(F)(F)F` [Example 6, 1-[[6-Methoxy-5-(trifluoromethyl)-1-naphthalenyl]sulfonyl]-2,4-imidazolidinedione], for which, on aldose reductase [1] (10^-6), the inhibition at 1 µM was 84%. Also, the inhibition at 0.1 µM at aldose reductase [1] (10^-7) worked out at 43%. In addition, the inhibition at 10 µM on aldose reductase [1] turned out to be 86%. Besides, the “% lowering dulcitol accumulation in vivo, D” value at aldose reductase [2] (diaphragm, 86 mg/kg/day in diet, p < 0.01) is 87%. Besides, at aldose reductase [2] (lens, 86 mg/kg/day in diet, p < 0.01), the “% lowering dulcitol accumulation in vivo, L” value came to 60%.

Take `O=C1CN(S(=O)(=O)c2ccc3c(Br)cccc3c2)C(=O)N1` [Example 20, 1-[(5-Bromo-2-naphthalenyl)sulfonyl]-2,4-imidazolidinedione]: at aldose reductase [1] (10^-5), the inhibition at 10 µM amounted to 89%. In addition, the inhibition at 1 µM on aldose reductase [1] (10^-6) turned out to be 77%. In addition, the inhibition at 0.1 µM on aldose reductase [1] (10^-7) is 24%. Moreover, the “% lowering dulcitol accumulation in vivo, L” value at aldose reductase [2] (lens, 24 mg/kg/day in diet) is “N.S”.

Take `O=C1CN(S(=O)(=O)c2cccc3ccccc23)C(=S)N1` [Example 9, 1-[(1-Naphthalenyl)sulfonyl]-2-thioxo-4-imidazolidinone]: the inhibition at 10 µM at aldose reductase [1] (10^-5) was 17%.

For the origin of these results see US4743611A, “Naphthalenylsulfonylimidazolidinediones and their thioxo analogs useful as aldose reductase inhibitors” (American Home Products Corp., priority 1987, dated 1988).
